Source: the NIST ThermoML archive (doi:10.1007/s10765-006-0122-6)
Numbers after ± are expanded uncertainties.

Details: for kinematic viscosity / surface tension liquid-gas: surface light scattering; for speed of sound / thermal diffusivity: dynamic light scattering

FC(C(F)(F)F)C(F)(F)F [1,1,1,2,3,3,3-heptafluoropropane]
kinematic viscosity (253.15 K, Liquid): 2.88e-07 ± 5.8e-09 m2/s | surface tension liquid-gas (253.15 K, Liquid): 12.26 ± 0.25 mN/m | kinematic viscosity (263.15 K, Liquid): 2.54e-07 ± 5.1e-09 m2/s | surface tension liquid-gas (263.15 K, Liquid): 10.96 ± 0.22 mN/m | kinematic viscosity (273.15 K, Liquid): 2.28e-07 ± 4.6e-09 m2/s | surface tension liquid-gas (273.15 K, Liquid): 9.76 ± 0.2 mN/m | kinematic viscosity (283.15 K, Liquid): 2.05e-07 ± 4.1e-09 m2/s | surface tension liquid-gas (283.15 K, Liquid): 8.62 ± 0.17 mN/m | kinematic viscosity (293.15 K, Liquid): 1.83e-07 ± 3.7e-09 m2/s | surface tension liquid-gas (293.15 K, Liquid): 7.46 ± 0.15 mN/m | speed of sound (293.22 K, Liquid): 437.4 ± 4.4 m/s | thermal diffusivity (293.22 K, Liquid): 3.66e-08 ± 7e-10 m2/s | speed of sound (303.12 K, Liquid): 397.8 ± 4 m/s | thermal diffusivity (303.12 K, Liquid): 3.5e-08 ± 7e-10 m2/s | kinematic viscosity (303.15 K, Liquid): 1.66e-07 ± 6.6e-09 m2/s | surface tension liquid-gas (303.15 K, Liquid): 6.31 ± 0.13 mN/m | kinematic viscosity (313.15 K, Liquid): 1.52e-07 ± 6.1e-09 m2/s | surface tension liquid-gas (313.15 K, Liquid): 5.25 ± 0.11 mN/m | speed of sound (313.2 K, Liquid): 356.8 ± 3.6 m/s | thermal diffusivity (313.2 K, Liquid): 3.26e-08 ± 7e-10 m2/s | kinematic viscosity (323.15 K, Liquid): 1.36e-07 ± 5.4e-09 m2/s | surface tension liquid-gas (323.15 K, Liquid): 4.23 ± 0.09 mN/m | speed of sound (323.18 K, Liquid): 315.5 ± 3.2 m/s | thermal diffusivity (323.18 K, Liquid): 3.14e-08 ± 6e-10 m2/s | speed of sound (332.72 K, Liquid): 275.1 ± 2.8 m/s | thermal diffusivity (332.72 K, Liquid): 2.95e-08 ± 6e-10 m2/s | kinematic viscosity (333.15 K, Liquid): 1.22e-07 ± 4.9e-09 m2/s | surface tension liquid-gas (333.15 K, Liquid): 3.23 ± 0.07 mN/m | speed of sound (342.68 K, Liquid): 231.6 ± 2.4 m/s | thermal diffusivity (342.68 K, Liquid): 2.76e-08 ± 6e-10 m2/s | kinematic viscosity (343.15 K, Liquid): 1.08e-07 ± 4.3e-09 m2/s | surface tension liquid-gas (343.15 K, Liquid): 2.3 ± 0.05 mN/m | speed of sound (345.66 K, Gas): 92.5 ± 0.9 m/s | thermal diffusivity (345.66 K, Gas): 1.01e-07 ± 2e-09 m2/s | speed of sound (348.02 K, Liquid): 208.4 ± 2.1 m/s | thermal diffusivity (348.02 K, Liquid): 2.66e-08 ± 5e-10 m2/s | speed of sound (348.15 K, Gas): 90.6 ± 0.9 m/s | thermal diffusivity (348.15 K, Gas): 9.3e-08 ± 1.9e-09 m2/s | speed of sound (350.65 K, Gas): 89.4 ± 0.9 m/s | thermal diffusivity (350.65 K, Gas): 8.46e-08 ± 1.7e-09 m2/s | speed of sound (353.02 K, Liquid): 185.5 ± 1.9 m/s | thermal diffusivity (353.02 K, Liquid): 2.51e-08 ± 5e-10 m2/s | speed of sound (353.15 K, Gas): 87.1 ± 0.9 m/s | thermal diffusivity (353.15 K, Gas): 7.64e-08 ± 1.5e-09 m2/s | kinematic viscosity (353.15 K, Liquid): 9.43e-08 ± 3.8e-09 m2/s | surface tension liquid-gas (353.15 K, Liquid): 1.42 ± 0.03 mN/m | speed of sound (355.64 K, Gas): 85.1 ± 0.9 m/s | thermal diffusivity (355.64 K, Gas): 6.9e-08 ± 1.4e-09 m2/s | speed of sound (358.09 K, Liquid): 160.8 ± 1.7 m/s | thermal diffusivity (358.09 K, Liquid): 2.36e-08 ± 5e-10 m2/s | speed of sound (358.14 K, Gas): 82.9 ± 0.8 m/s | thermal diffusivity (358.14 K, Gas): 6.06e-08 ± 1.2e-09 m2/s | kinematic viscosity (358.15 K, Liquid): 8.74e-08 ± 3.5e-09 m2/s | surface tension liquid-gas (358.15 K, Liquid): 1.02 ± 0.03 mN/m | speed of sound (360.64 K, Gas): 80.4 ± 0.8 m/s | thermal diffusivity (360.64 K, Gas): 5.25e-08 ± 1.1e-09 m2/s | speed of sound (363.09 K, Liquid): 134.7 ± 1.5 m/s | thermal diffusivity (363.09 K, Liquid): 2.11e-08 ± 4e-10 m2/s | speed of sound (363.14 K, Gas): 77.9 ± 0.8 m/s | thermal diffusivity (363.14 K, Gas): 4.41e-08 ± 9e-10 m2/s | kinematic viscosity (363.15 K, Liquid): 8.08e-08 ± 3.2e-09 m2/s | surface tension liquid-gas (363.15 K, Liquid): 0.644 ± 0.019 mN/m | speed of sound (365.63 K, Gas): 75.2 ± 0.8 m/s | thermal diffusivity (365.63 K, Gas): 3.6e-08 ± 7e-10 m2/s | speed of sound (365.9 K, Liquid): 118.5 ± 1.3 m/s | thermal diffusivity (365.9 K, Liquid): 1.92e-08 ± 4e-10 m2/s | speed of sound (367.67 K, Gas): 72.8 ± 0.7 m/s | thermal diffusivity (367.67 K, Gas): 2.91e-08 ± 6e-10 m2/s | speed of sound (368.08 K, Liquid): 106.1 ± 1.2 m/s | thermal diffusivity (368.08 K, Liquid): 1.72e-08 ± 4e-10 m2/s | kinematic viscosity (368.15 K, Liquid): 7.34e-08 ± 3e-09 m2/s | surface tension liquid-gas (368.15 K, Liquid): 0.314 ± 0.014 mN/m | speed of sound (369.47 K, Gas): 70.5 ± 0.7 m/s | thermal diffusivity (369.47 K, Gas): 2.26e-08 ± 5e-10 m2/s | kinematic viscosity (370.15 K, Liquid): 7.03e-08 ± 2.8e-09 m2/s | surface tension liquid-gas (370.15 K, Liquid): 0.2 ± 0.012 mN/m | speed of sound (370.2 K, Liquid): 92.6 ± 1.1 m/s | thermal diffusivity (370.2 K, Liquid): 1.42e-08 ± 3e-10 m2/s | speed of sound (370.76 K, Gas): 68.7 ± 0.7 m/s | thermal diffusivity (370.76 K, Gas): 1.78e-08 ± 4e-10 m2/s | kinematic viscosity (371.15 K, Liquid): 6.79e-08 ± 2.7e-09 m2/s | surface tension liquid-gas (371.15 K, Liquid): 0.145 ± 0.011 mN/m | speed of sound (371.41 K, Liquid): 83.8 ± 1.1 m/s | thermal diffusivity (371.41 K, Liquid): 1.21e-08 ± 3e-10 m2/s | speed of sound (371.96 K, Gas): 67 ± 0.7 m/s | thermal diffusivity (371.96 K, Gas): 1.32e-08 ± 3e-10 m2/s | kinematic viscosity (372.15 K, Liquid): 6.74e-08 ± 2.7e-09 m2/s | speed of sound (372.19 K, Liquid): 78.2 ± 1.1 m/s | thermal diffusivity (372.19 K, Liquid): 9.91e-09 ± 3.3e-10 m2/s | speed of sound (372.96 K, Gas): 65.3 ± 0.7 m/s | thermal diffusivity (372.96 K, Gas): 9.21e-09 ± 1.8e-10 m2/s | speed of sound (372.99 K, Liquid): 72.8 ± 1.1 m/s | thermal diffusivity (372.99 K, Liquid): 7.88e-09 ± 3.3e-10 m2/s | speed of sound (373.5 K, Liquid): 68.3 ± 1 m/s | thermal diffusivity (373.5 K, Liquid): 6.11e-09 ± 3.7e-10 m2/s | speed of sound (373.95 K, Gas): 63.6 ± 0.7 m/s | thermal diffusivity (373.95 K, Gas): 4.9e-09 ± 1e-10 m2/s | speed of sound (373.99 K, Liquid): 65.3 ± 0.9 m/s | thermal diffusivity (373.99 K, Liquid): 4.34e-09 ± 4e-10 m2/s | thermal diffusivity (374.45 K, Gas): 2.65e-09 ± 5e-11 m2/s | thermal diffusivity (374.49 K, Liquid): 2.24e-09 ± 4.4e-10 m2/s | thermal diffusivity (374.65 K, Gas): 1.73e-09 ± 4e-11 m2/s | thermal diffusivity (374.67 K, Liquid): 1.36e-09 ± 4.9e-10 m2/s | Critical temperature (Liquid, Visual observation in an unstirred cell): 374.9 ± 0.12 K
